Laboratory results as given in EP3135113A1, “USE OF HERBICIDAL COMPOSITIONS FOR CONTROLLING UNWANTED VEGETATION” (BASF SE, priority 2015, dated 2017).

Test system: Amaranthus palmeri
Assay: field test, post-emergence spray, visual injury rating of Palmer amaranth (scale 0 to 100)
Type: in vivo
Details: 3 days after treatment, 0.25% by volume non-ionic surfactant (Induce), 185 liter/ha
Description: The following examples summarized in table 1 serve to illustrate the invention: • Dicamba was applied as Engenia™ herbicide [BAPMA salt - (bis(3-aminopropyl)methylamine))], while 2,4-DB was applied as the commercially available Butyrac® 200 (dimethylamine salt). Herbicides were applied at an appropriate weight of each product dissolved in 1 liter of water. All herbicide treatments were applied with 0.25% by volume of a non-ionic surfactant (Induce®; an adjuvant composition consisting of alkyl aryl polyoxyalkane ethers, alkanolamides, dimethyl siloxane and free fatty acids). The spray solution was applied by a CO2 powered backpack sprayer delivering the spray solution at a rate of 185 liter/ha. The spray solution was applied to a field naturally populated with Palmer amaranth (Amaranthus palmeri) with an average height of 4-6 inches in height, however, plants both larger and smaller plants were in the field at the time of application as well. Palmer amaranth was assessed for visual injury 3 days after treatment and injury was rated on a scale from 0 to 100, whereby 0 equals no herbicidal response and 100 equals complete control of the Palmer amaranth.

## 4-(2,4-dichlorophenoxy)butanoic acid [2,4-DB]
Exp. No. 2, 2,4-DB 17.5 g/ha a.i.
  herbicidal activity against Amaranthus palmeri (% control) found: 0%
Exp. No. 3, 2,4-DB 35 g/ha a.i.
  herbicidal activity against Amaranthus palmeri (% control) found: 5%
Exp. No. 4, 2,4-DB 52.5 g/ha a.i.
  herbicidal activity against Amaranthus palmeri (% control) found: 15%

## COc1c(Cl)ccc(Cl)c1C(=O)O [dicamba, 3,6-dichloro-2-methoxybenzoic acid]
Exp. No. 1, dicamba 420 g/ha a.i.
  herbicidal activity against Amaranthus palmeri (% control) found: 60%
